Laboratory results as given in PubChem BioAssay AID292 (DTP/NCI, 2004).
Several values for one entry are separate records, joined by “and”; a condition that tells them apart may be missing. Identical values can stand only once. Toxic doses and inconclusive results are not listed.

Tested on: B6C3F1 mice, ip Sarcoma M5076, median survival T/C
Test: NCI In Vivo Anticancer Drug Screen. Data for tumor model Sarcoma M5076 (intraperitoneal) in B6C3F1 mice
Conditions: endpoint: median survival time, higher = longer survival
How it was run: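 Survival measured in treated (T) and vehicle control (C) mice with transplantable tumour; result given as T divided by C.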

[1] = dose: 50.0 mg/kg/injection, schedule: Q04DX004 (ip), vehicle: Klucel (hydroxypropylcellulose) (HPC)
[2] = dose: 100.0 mg/kg/injection, schedule: Q04DX004 (ip), vehicle: Klucel (hydroxypropylcellulose) (HPC)
[3] = dose: 200.0 mg/kg/injection, schedule: Q04DX004 (ip), vehicle: Klucel (hydroxypropylcellulose) (HPC)
[4] = dose: 75.0 mg/kg/injection, schedule: Q04DX004 (ip), vehicle: saline
[5] = dose: 150.0 mg/kg/injection, schedule: Q04DX004 (ip), vehicle: saline
[6] = dose: 50.0 mg/kg/injection, schedule: Q04DX004 (ip), vehicle: saline with Tween-80
[7] = dose: 100.0 mg/kg/injection, schedule: Q04DX004 (ip), vehicle: saline with Tween-80
[8] = dose: 200.0 mg/kg/injection, schedule: Q04DX004 (ip), vehicle: saline with Tween-80
[9] = dose: 50.0 mg/kg/injection, schedule: Q04DX004 (ip), vehicle: saline
[10] = dose: 100.0 mg/kg/injection, schedule: Q04DX004 (ip), vehicle: saline
[11] = dose: 75.0 mg/kg/injection, schedule: Q04DX004 (ip), vehicle: saline with Tween-80
[12] = dose: 150.0 mg/kg/injection, schedule: Q04DX004 (ip), vehicle: saline with Tween-80
[13] = dose: 300.0 mg/kg/injection, schedule: Q04DX004 (ip), vehicle: saline with Tween-80

CCCCCCCC1C(=O)OC2CC3C(C)=CC(=O)C(O)C3(C)C3C4(O)OCC23C1C(C)C4O (configuration not stated)
T/C (dose: 2.5 mg/kg/injection, schedule: Q04DX004 (ip), vehicle: Klucel (hydroxypropylcellulose) (HPC)): 109 % of control | T/C (dose: 5.0 mg/kg/injection, schedule: Q04DX004 (ip), vehicle: Klucel (hydroxypropylcellulose) (HPC)): 108 % of control | T/C (dose: 10.0 mg/kg/injection, schedule: Q04DX004 (ip), vehicle: Klucel (hydroxypropylcellulose) (HPC)): 109 % of control | T/C (dose: 20.0 mg/kg/injection, schedule: Q04DX004 (ip), vehicle: Klucel (hydroxypropylcellulose) (HPC)): 106 % of control

CN1C2C=CC(=O)C1C1C(=O)N(c3ccccc3)C(=O)C12 (configuration not stated)
T/C [1]: 102 % of control | T/C [2]: 96 % of control | T/C [3]: 118 % of control

COc1ccc2nc(C)cc(N/N=C/c3cccnc3)c2c1
T/C (dose: 12.5 mg/kg/injection, schedule: Q04DX004 (ip), vehicle: Klucel (hydroxypropylcellulose) (HPC)): 104 % of control | T/C (dose: 25.0 mg/kg/injection, schedule: Q04DX004 (ip), vehicle: Klucel (hydroxypropylcellulose) (HPC)): 114 % of control | T/C [1]: 116 % of control | T/C [2]: 117 % of control

O=C1C(=O)c2cccnc2-c2ncccc21
T/C (dose: 0.38 mg/kg/injection, schedule: Q04DX004 (ip), vehicle: Klucel (hydroxypropylcellulose) (HPC)): 101 % of control | T/C (dose: 0.75 mg/kg/injection, schedule: Q04DX004 (ip), vehicle: Klucel (hydroxypropylcellulose) (HPC)): 109 % of control | T/C (dose: 1.5 mg/kg/injection, schedule: Q04DX004 (ip), vehicle: Klucel (hydroxypropylcellulose) (HPC)): 104 % of control | T/C (dose: 3.0 mg/kg/injection, schedule: Q04DX004 (ip), vehicle: Klucel (hydroxypropylcellulose) (HPC)): 105 % of control | T/C (dose: 6.0 mg/kg/injection, schedule: Q04DX004 (ip), vehicle: Klucel (hydroxypropylcellulose) (HPC)): 110 % of control

N#CC1C(=O)NC(=S)NC1CCc1ccccc1 (configuration not stated)
T/C [1]: 95 % of control | T/C [2]: 100 % of control | T/C [3]: 108 % of control

COC1=CCC23C(=O)C=CC(=O)C2(C1)C(=O)c1ccccc1C3=O (configuration not stated)
T/C (dose: 1.5 mg/kg/injection, schedule: Q04DX004 (ip), vehicle: saline with Tween-80): 110 % of control | T/C (dose: 3.0 mg/kg/injection, schedule: Q04DX004 (ip), vehicle: saline with Tween-80): 95 % of control | T/C (dose: 6.0 mg/kg/injection, schedule: Q04DX004 (ip), vehicle: saline with Tween-80): 94 % of control | T/C (dose: 12.0 mg/kg/injection, schedule: Q04DX004 (ip), vehicle: saline with Tween-80): 98 % of control | T/C (dose: 24.0 mg/kg/injection, schedule: Q04DX004 (ip), vehicle: saline with Tween-80): 108 % of control

O=C(CCl)N1CCN(C/C=C/c2ccccc2)CC1
T/C (dose: 37.5 mg/kg/injection, schedule: Q04DX004 (ip), vehicle: saline): 106 % of control | T/C [4]: 96 % of control | T/C [5]: 96 % of control

NC(=S)N/N=C/c1cc(=O)c2cc(Cl)ccc2o1
T/C (dose: 75.0 mg/kg/injection, schedule: Q04DX004 (ip), vehicle: DMSO): 92 % of control

c1ccc(OCC2CO2)c(OCC2CO2)c1 (configuration not stated)
T/C [6]: 111 % of control and 121 % of control | T/C [7]: 118 % of control and 123 % of control | T/C [8]: 156 % of control and 173 % of control

O=C1C[C@@H](c2ccccc2)NCCCCN(O)CCCN1
T/C (dose: 25.0 mg/kg/injection, schedule: Q04DX004 (ip), vehicle: saline): 102 % of control | T/C [9]: 102 % of control | T/C [10]: 102 % of control

COc1ccc(-n2c(CSc3ccc(Cl)cc3)n[nH]c2=S)cc1
T/C (dose: 37.5 mg/kg/injection, schedule: Q04DX004 (ip), vehicle: saline with Tween-80): 96 % of control | T/C [11]: 101 % of control | T/C [12]: 96 % of control | T/C [13]: 87 % of control

C#CCN(Cc1ccc2nc(N)[nH]c(=O)c2c1)c1ccc(C(=O)NC(CCC(=O)O)C(=O)O)cc1 (configuration not stated)
T/C (dose: 25.0 mg/kg/injection, schedule: Q04DX004 (ip), vehicle: water): 98 % of control | T/C (dose: 50.0 mg/kg/injection, schedule: Q04DX004 (ip), vehicle: water): 98 % of control and 118 % of control | T/C (dose: 100.0 mg/kg/injection, schedule: Q04DX004 (ip), vehicle: water): 120 % of control | T/C (dose: 200.0 mg/kg/injection, schedule: Q04DX004 (ip), vehicle: water): 162 % of control | T/C (dose: 400.0 mg/kg/injection, schedule: Q04DX004 (ip), vehicle: water): 152 % of control and 175 % of control

CNC(=S)C#N
T/C (dose: 12.5 mg/kg/injection, schedule: Q04DX004 (ip), vehicle: saline + Tween-80 + alcohol): 90 % of control | T/C (dose: 50.0 mg/kg/injection, schedule: Q04DX004 (ip), vehicle: saline + Tween-80 + alcohol): 89 % of control

COc1cccc(C2NC(=S)NC(=O)C2C#N)c1 (configuration not stated)
T/C [1]: 99 % of control | T/C [2]: 99 % of control | T/C [3]: 95 % of control | T/C (dose: 400.0 mg/kg/injection, schedule: Q04DX004 (ip), vehicle: Klucel (hydroxypropylcellulose) (HPC)): 97 % of control

O=C1c2ccccc2C(=O)c2c(NCCNCCO)ccc(NCCNCCO)c21
T/C (dose: 1.0 mg/kg/injection, schedule: Q04DX004 (ip), vehicle: saline): 112 % of control | T/C (dose: 2.0 mg/kg/injection, schedule: Q04DX004 (ip), vehicle: saline): 120 % of control | T/C (dose: 5.0 mg/kg/injection, schedule: Q04DX005 (ip), vehicle: saline): 234 % of control | T/C (dose: 8.0 mg/kg/injection, schedule: Q04DX004 (ip), vehicle: saline): 158 % of control | T/C (dose: 10.0 mg/kg/injection, schedule: Q04DX005 (ip), vehicle: saline): 319 % of control | T/C (dose: 16.0 mg/kg/injection, schedule: Q04DX004 (ip), vehicle: saline): 174 % of control | T/C (dose: 20.0 mg/kg/injection, schedule: Q04DX004 (ip), vehicle: suspension in saline): 156 % of control | T/C (dose: 40.0 mg/kg/injection, schedule: Q04DX004 (ip), vehicle: suspension in saline): 172 % of control

O=C1CCC(=O)N1CO
T/C [6]: 93 % of control | T/C [7]: 101 % of control | T/C [8]: 87 % of control | T/C (dose: 400.0 mg/kg/injection, schedule: Q04DX004 (ip), vehicle: saline with Tween-80): 100 % of control | T/C (dose: 800.0 mg/kg/injection, schedule: Q04DX004 (ip), vehicle: saline with Tween-80): 97 % of control

O=c1cc(-c2ccccc2)[nH]c2c1CCCC2
T/C [11]: 91 % of control | T/C [12]: 99 % of control | T/C [13]: 106 % of control | T/C (dose: 600.0 mg/kg/injection, schedule: Q04DX004 (ip), vehicle: saline with Tween-80): 98 % of control

CCn1c2ccccc2c2cc(N)c(N=Nc3ccc(N(C)C)cc3)cc21
T/C (dose: 32.82 mg/kg/injection, schedule: Q04DX004 (ip), vehicle: Klucel (hydroxypropylcellulose) (HPC)): 111 % of control | T/C (dose: 65.63 mg/kg/injection, schedule: Q04DX004 (ip), vehicle: Klucel (hydroxypropylcellulose) (HPC)): 93 % of control | T/C (dose: 131.25 mg/kg/injection, schedule: Q04DX004 (ip), vehicle: Klucel (hydroxypropylcellulose) (HPC)): 97 % of control | T/C (dose: 262.5 mg/kg/injection, schedule: Q04DX004 (ip), vehicle: Klucel (hydroxypropylcellulose) (HPC)): 93 % of control | T/C (dose: 525.0 mg/kg/injection, schedule: Q04DX004 (ip), vehicle: Klucel (hydroxypropylcellulose) (HPC)): 90 % of control

Cc1cc2cc3cc(C)c(N)cc3nc2cc1N
T/C (dose: 25.0 mg/kg/injection, schedule: Q04DX004 (ip), vehicle: saline with Tween-80): 110 % of control | T/C [6]: 117 % of control | T/C [7]: 113 % of control

C1CCC(NC2CCCCC2)CC1
T/C [4]: 103 % of control | T/C [5]: 103 % of control | T/C (dose: 300.0 mg/kg/injection, schedule: Q04DX004 (ip), vehicle: saline): 100 % of control

CCCS(=N)(=O)CCC(N)C(=O)O (configuration not stated)
T/C [9]: 103 % of control | T/C [10]: 105 % of control | T/C (dose: 200.0 mg/kg/injection, schedule: Q04DX004 (ip), vehicle: saline): 102 % of control | T/C (dose: 400.0 mg/kg/injection, schedule: Q04DX004 (ip), vehicle: saline): 102 % of control | T/C (dose: 800.0 mg/kg/injection, schedule: Q04DX004 (ip), vehicle: saline): 105 % of control
